Data on 6 molecules can be found in ChEMBL document CHEMBL3751715, “Design and synthesis of an activity-based protein profiling probe derived from cinnamic hydroxamic acid” (Bioorg Med Chem, 2016).

What is called half-life is how long it takes for the measured level to halve. As usually defined, the pEC50 is −log10 of the EC50, conventionally taken in molar units. As a reminder, the CC50 is the concentration that lowers cell viability or growth by half. Usually pIC50 stands for −log10 of the IC50, conventionally taken in molar units.

pEC50, pIC50: −log10 of the molar value. In brackets after ≈: the same amount, converted by molar mass.

A short description of data set [1]: Cytotoxicity against human HuH7 cells assessed as inhibition of cell viability at 10 uM after 3 days by CellTiter 96 aqueous one solution cell proliferation assay. In kind it is cell-based, Huh-7. Particulars: read-out: Activity.
Data set [2] concerns Hepatitis C virus. Put plainly: Antiviral activity against HCV genotype 1b replicon infected in human HuH7 cells at 10 uM after 3 days by luciferase reporter assay. In kind it is functional, Hepacivirus hominis. Conditions: Huh-7, 72 h.
The nature of data set [3]: Half life in mouse liver microsomes at 1 uM by LC-MS/MS analysis in presence of NADPH. In kind it is ADME. For orientation: Microsomes from liver hold many membrane-bound enzymes, among them those of drug oxidation.
Data set [4] in a line: Half life in human liver microsomes at 1 uM by LC-MS/MS analysis in presence of UDPGA. In kind it is ADME.
Data set [5] in a line: Half life in human plasma at 1 to 24 hrs by LC-MS/MS analysis. In kind it is ADME, cell-free.
Data set [6] can be described thus: Half life in human liver microsomes at 1 uM by LC-MS/MS analysis in presence of NADPH. In kind it is ADME.
The nature of data set [7]: Half life in mouse plasma at 1 to 24 hrs by LC-MS/MS analysis. In kind it is ADME, cell-free.
Data set [8] can be described thus: Half life in mouse liver microsomes at 1 uM by LC-MS/MS analysis in presence of UDPGA. In kind it is ADME.
For data set [9], the system named is Hepatitis C virus. Put plainly: Antiviral activity against HCV assessed as reduction of viral replicon RNA level by RT-qPCR analysis. In kind it is functional, organism-based. Conditions: Hepacivirus hominis. In general terms: In antiviral work, replicon cells carry a viral genome segment that copies itself.
Data set [10] can be described thus: Thermodynamic solubility of the compound in DPBS buffer at pH 7.4 after 72 hrs by UV spectrometric analysis. Particulars: read-out: Therm_solubility. In kind it is physicochemical.
Data set [11] is described as follows: Therapeutic index, ratio of CC50 for human HuH7 cells to EC50 for HCV genotype 1b replicon. In kind it is cell-based, Huh-7. Particulars: read-out: Ratio CC50/EC50.
Data set [12] concerns Hepatitis C virus. Put plainly: Antiviral activity against HCV genotype 1b replicon infected in human HuH7 cells after 3 days by luciferase reporter assay. In kind it is functional, organism-based, Hepacivirus hominis. Conditions: Huh-7, 72 h.
Data set [13] in a line: Cytotoxicity against human HuH7 cells assessed as cell viability after 3 days by CellTiter 96 aqueous one solution cell proliferation assay. In kind it is cell-based, Huh-7.
Data set [14] can be described thus: Inhibition of recombinant HCV genotype 1b NS3/4A protease expressed in Escherichia coli using Ac-DE-D(Edans)-EE-Abu-[COO]-AS-K(Dabcyl)-NH2 as substrate. Also on record: species or system Hepatitis C virus subtype 1b.
For another data set, the target named is Stromelysin-2 (Homo sapiens, UniProt P09238). Briefly: Inhibition of human recombinant MMP10 expressed in Escherichia coli using (5-FAM/QXLTM) FRET peptide as substrate.
In a further data set the target is Histone deacetylase 7 (Homo sapiens, UniProt Q8WUI4). Briefly: Inhibition of N-terminal GST-tagged human HDAC7 expressed in baculovirus expression system using (Boc-Lys(trifluoroacetyl)-AMC) as substrate by plate reader analysis.
In another data set the target is Histone deacetylase 1 (Homo sapiens, UniProt Q13547). Briefly: Inhibition of full length C-terminal GST-tagged human HDAC1 expressed in Sf9 cells using (Arg-His-Lys-Lys(Ac)) as substrate by plate reader analysis.
Data set [15] has as its target Macrophage metalloelastase (Homo sapiens, UniProt P39900). Put plainly: Inhibition of human recombinant MMP12 expressed in Escherichia coli using (5-FAM/QXLTM) FRET peptide as substrate.
The target of a further data set is Histone deacetylase 11 (Homo sapiens, UniProt Q96DB2). Briefly: Inhibition of N-terminal GST-tagged human HDAC11 expressed in baculovirus expression system using (Arg-His-Lys-Lys(Ac)) as substrate by plate reader analysis.
The target of a further data set is Histone deacetylase 5 (Homo sapiens, UniProt Q9UQL6). Briefly: Inhibition of full length N-terminal GST-tagged human HDAC5 expressed in Sf9 cells using (Boc-Lys(trifluoroacetyl)-AMC) as substrate by plate reader analysis.
A further data set has as its target Neutrophil collagenase (Homo sapiens, UniProt P22894). Put plainly: Inhibition of human recombinant MMP8 expressed in Escherichia coli using (5-FAM/QXLTM) FRET peptide as substrate.
The next data set addresses Matrilysin (Homo sapiens, UniProt P09237). Briefly: Inhibition of human recombinant MMP7 expressed in Escherichia coli using (5-FAM/QXLTM) FRET peptide as substrate.
In another data set the target is Collagenase 3 (Homo sapiens, UniProt P45452). Briefly: Inhibition of human recombinant MMP13 expressed in Escherichia coli using (5-FAM/QXLTM) FRET peptide as substrate.
For a further data set, the target named is Interstitial collagenase (Homo sapiens, UniProt P03956). Briefly: Inhibition of human recombinant MMP1 expressed in Escherichia coli using (5-FAM/QXLTM) FRET peptide as substrate.
In data set [16] the target is Polyamine deacetylase HDAC10 (Homo sapiens, UniProt Q969S8). Put plainly: Inhibition of N-terminal GST-tagged human HDAC10 expressed in Sf9 cells using (Arg-His-Lys-Lys(Ac)) as substrate by plate reader analysis.
The next data set addresses Histone deacetylase 8 (Homo sapiens, UniProt Q9BY41). Put plainly: Inhibition of full length human HDAC8 expressed in Escherichia coli using (Arg-His-Lys(Ac)-Lys(Ac)) as substrate by plate reader analysis.
Data set [17] concerns Hepatitis C virus subtype 1b. Briefly: Inhibition of recombinant HCV genotype 1b NS5B Cdelta55 RNA dependent RNA polymerase at 10 uM incubated for 3 hrs using Oligo-U12 primer, UTP and Poly(A) template by scintillation proximity assay. Background: In a scintillation proximity assay essentially only radioactivity close to the scintillant gives light.
The target of a further data set is Histone deacetylase 3 (Homo sapiens, UniProt O15379). Put plainly: Inhibition of full length C-terminal His-tagged human HDAC3 expressed in baculovirus expression system using (Arg-His-Lys-Lys(Ac)) as substrate by plate reader analysis.
The next data set deals with Stromelysin-1 (Homo sapiens, UniProt P08254). Put plainly: Inhibition of human recombinant MMP3 expressed in Escherichia coli using (5-FAM/QXLTM) FRET peptide as substrate.
For data set [18], the target named is Matrix metalloproteinase-9 (Homo sapiens, UniProt P14780). Put plainly: Inhibition of human recombinant MMP9 expressed in Escherichia coli using (5-FAM/QXLTM) FRET peptide as substrate.
The target in data set [19] is Matrix metalloproteinase-14 (Homo sapiens, UniProt P50281). Put plainly: Inhibition of human recombinant MMP14 expressed in Escherichia coli using (5-FAM/QXLTM) FRET peptide as substrate.
The next data set has as its target Histone deacetylase 9 (Homo sapiens, UniProt Q9UKV0). Put plainly: Inhibition of C-terminal His-tagged human HDAC9 expressed in baculovirus expression system using (Boc-Lys(trifluoroacetyl)-AMC) as substrate by plate reader analysis.
Data set [20] addresses Disintegrin and metalloproteinase domain-containing protein 17 (Homo sapiens, UniProt P78536). Briefly: Inhibition of human recombinant TACE expressed in Sf21 cells using MCA-PLAQAV-Dpa-RSSSR-NH2 as substrate.
Another data set deals with Histone deacetylase 4 (Homo sapiens, UniProt P56524). Briefly: Inhibition of N-terminal GST-tagged human HDAC4 expressed in baculovirus expression system using (Boc-Lys(trifluoroacetyl)-AMC) as substrate by plate reader analysis.
A further data set deals with Histone deacetylase 2 (Homo sapiens, UniProt Q92769). Put plainly: Inhibition of full length C-terminal His-tagged human HDAC2 expressed in Sf9 cells using (Arg-His-Lys-Lys(Ac)) as substrate by plate reader analysis.
Data set [21] has as its target Protein deacetylase HDAC6 (Homo sapiens, UniProt Q9UBN7). Briefly: Inhibition of full length N-terminal GST-tagged human HDAC6 expressed in Sf9 cells using (Arg-His-Lys-Lys(Ac)) as substrate by plate reader analysis.

Chain of Protein deacetylase HDAC6 (Q9UBN7 whole entry): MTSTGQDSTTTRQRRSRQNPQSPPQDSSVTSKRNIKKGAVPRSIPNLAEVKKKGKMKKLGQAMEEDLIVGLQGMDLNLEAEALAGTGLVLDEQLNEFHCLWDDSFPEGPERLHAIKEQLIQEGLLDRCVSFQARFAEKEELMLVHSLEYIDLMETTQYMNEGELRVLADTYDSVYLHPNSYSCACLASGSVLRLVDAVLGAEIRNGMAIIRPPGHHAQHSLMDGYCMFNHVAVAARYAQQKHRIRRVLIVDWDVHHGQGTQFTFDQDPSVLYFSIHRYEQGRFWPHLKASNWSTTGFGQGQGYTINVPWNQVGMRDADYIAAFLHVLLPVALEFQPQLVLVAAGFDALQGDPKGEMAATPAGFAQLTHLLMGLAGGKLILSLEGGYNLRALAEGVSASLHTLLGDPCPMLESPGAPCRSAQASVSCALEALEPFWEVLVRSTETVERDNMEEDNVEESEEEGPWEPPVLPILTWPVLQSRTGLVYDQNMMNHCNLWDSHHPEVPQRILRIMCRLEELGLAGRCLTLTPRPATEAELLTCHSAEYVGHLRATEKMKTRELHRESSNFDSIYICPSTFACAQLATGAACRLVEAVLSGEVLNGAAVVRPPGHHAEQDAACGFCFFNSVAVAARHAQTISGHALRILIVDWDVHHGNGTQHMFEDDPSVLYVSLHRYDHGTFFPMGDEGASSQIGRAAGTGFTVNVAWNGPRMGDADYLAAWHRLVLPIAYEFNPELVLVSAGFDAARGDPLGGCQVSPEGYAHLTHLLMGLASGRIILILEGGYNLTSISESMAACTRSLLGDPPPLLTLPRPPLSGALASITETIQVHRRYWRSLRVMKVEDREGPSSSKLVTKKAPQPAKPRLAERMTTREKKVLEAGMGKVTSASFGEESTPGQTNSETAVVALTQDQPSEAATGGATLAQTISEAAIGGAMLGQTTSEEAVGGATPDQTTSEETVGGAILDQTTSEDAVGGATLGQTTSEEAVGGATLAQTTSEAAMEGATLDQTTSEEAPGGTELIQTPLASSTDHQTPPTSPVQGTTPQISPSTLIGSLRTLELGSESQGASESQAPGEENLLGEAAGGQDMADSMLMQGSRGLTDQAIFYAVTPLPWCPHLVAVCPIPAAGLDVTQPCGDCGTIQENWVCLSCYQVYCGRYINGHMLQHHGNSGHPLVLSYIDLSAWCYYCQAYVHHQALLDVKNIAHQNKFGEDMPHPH
Chain of Matrilysin (P09237 whole entry): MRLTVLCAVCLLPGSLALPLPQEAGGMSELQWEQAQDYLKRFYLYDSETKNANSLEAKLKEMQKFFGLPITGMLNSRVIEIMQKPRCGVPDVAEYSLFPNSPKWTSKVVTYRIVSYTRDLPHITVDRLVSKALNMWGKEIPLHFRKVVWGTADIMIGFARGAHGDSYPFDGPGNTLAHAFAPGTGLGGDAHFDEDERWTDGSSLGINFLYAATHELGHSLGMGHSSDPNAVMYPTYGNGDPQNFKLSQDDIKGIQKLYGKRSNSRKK
Chain of Histone deacetylase 7 (Q8WUI4 whole entry): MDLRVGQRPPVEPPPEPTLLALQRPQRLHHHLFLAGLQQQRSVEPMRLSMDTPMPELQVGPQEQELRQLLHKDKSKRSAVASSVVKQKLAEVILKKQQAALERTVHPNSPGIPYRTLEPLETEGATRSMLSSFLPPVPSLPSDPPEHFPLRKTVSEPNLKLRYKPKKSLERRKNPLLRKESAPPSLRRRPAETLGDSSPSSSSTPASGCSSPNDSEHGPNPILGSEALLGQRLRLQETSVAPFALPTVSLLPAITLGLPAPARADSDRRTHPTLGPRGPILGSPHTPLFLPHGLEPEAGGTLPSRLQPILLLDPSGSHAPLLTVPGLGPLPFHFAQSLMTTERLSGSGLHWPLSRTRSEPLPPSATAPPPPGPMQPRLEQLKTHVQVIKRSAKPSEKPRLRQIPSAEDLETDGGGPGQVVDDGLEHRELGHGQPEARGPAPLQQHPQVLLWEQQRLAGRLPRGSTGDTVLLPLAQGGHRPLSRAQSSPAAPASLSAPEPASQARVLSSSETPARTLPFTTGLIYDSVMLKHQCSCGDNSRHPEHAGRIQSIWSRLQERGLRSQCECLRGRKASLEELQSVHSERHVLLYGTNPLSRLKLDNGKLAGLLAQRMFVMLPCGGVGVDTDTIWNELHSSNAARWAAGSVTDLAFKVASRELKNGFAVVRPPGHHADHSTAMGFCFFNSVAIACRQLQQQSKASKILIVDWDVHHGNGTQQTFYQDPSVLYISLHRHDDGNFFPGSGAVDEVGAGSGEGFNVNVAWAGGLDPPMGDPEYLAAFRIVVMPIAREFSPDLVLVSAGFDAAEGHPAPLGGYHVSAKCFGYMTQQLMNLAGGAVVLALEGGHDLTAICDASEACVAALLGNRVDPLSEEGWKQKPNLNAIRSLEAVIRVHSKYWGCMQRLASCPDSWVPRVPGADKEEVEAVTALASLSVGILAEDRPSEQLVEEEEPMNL
Chain of Interstitial collagenase (P03956 whole entry): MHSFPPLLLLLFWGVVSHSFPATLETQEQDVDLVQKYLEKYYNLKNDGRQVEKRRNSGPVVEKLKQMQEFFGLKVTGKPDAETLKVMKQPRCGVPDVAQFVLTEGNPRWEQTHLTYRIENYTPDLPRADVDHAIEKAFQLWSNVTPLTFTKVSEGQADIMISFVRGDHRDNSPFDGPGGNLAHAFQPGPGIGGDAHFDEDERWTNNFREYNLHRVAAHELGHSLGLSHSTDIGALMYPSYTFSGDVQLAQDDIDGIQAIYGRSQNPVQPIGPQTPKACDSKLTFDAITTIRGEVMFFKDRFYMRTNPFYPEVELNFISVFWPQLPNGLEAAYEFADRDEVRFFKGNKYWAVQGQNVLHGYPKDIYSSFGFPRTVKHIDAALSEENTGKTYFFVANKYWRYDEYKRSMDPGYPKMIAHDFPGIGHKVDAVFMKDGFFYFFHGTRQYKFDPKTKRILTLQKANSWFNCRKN
Chain of Histone deacetylase 3 (O15379 whole entry): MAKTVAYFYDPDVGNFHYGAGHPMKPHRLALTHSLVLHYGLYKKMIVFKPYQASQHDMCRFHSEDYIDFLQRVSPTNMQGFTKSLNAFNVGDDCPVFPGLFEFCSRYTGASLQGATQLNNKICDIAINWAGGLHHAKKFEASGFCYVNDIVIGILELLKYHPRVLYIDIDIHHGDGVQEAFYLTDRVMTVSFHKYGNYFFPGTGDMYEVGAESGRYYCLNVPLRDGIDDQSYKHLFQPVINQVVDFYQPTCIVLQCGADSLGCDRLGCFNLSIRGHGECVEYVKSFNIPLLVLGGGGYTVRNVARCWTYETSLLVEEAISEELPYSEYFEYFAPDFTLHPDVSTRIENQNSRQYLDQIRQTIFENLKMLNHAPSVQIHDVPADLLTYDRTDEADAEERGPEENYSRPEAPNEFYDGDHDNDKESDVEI
Chain of Matrix metalloproteinase-9 (P14780 whole entry): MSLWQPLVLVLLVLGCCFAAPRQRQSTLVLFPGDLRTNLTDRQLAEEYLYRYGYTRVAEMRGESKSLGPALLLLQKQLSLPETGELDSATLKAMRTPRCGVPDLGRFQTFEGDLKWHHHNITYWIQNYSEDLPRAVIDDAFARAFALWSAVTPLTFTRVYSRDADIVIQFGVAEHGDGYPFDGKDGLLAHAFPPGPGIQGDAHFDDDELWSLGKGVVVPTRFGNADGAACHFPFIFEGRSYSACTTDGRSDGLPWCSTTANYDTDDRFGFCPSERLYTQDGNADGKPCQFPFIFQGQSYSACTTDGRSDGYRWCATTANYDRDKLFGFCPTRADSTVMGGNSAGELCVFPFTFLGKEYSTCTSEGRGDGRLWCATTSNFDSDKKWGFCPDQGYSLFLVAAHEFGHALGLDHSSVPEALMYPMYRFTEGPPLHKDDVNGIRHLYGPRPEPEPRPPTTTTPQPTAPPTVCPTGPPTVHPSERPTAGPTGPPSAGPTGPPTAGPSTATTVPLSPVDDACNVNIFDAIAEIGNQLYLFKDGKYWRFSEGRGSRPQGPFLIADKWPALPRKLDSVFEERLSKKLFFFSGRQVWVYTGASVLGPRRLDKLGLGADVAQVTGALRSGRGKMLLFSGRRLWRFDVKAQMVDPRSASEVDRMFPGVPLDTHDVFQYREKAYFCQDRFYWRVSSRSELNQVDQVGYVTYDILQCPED
Chain of Histone deacetylase 8 (Q9BY41 whole entry): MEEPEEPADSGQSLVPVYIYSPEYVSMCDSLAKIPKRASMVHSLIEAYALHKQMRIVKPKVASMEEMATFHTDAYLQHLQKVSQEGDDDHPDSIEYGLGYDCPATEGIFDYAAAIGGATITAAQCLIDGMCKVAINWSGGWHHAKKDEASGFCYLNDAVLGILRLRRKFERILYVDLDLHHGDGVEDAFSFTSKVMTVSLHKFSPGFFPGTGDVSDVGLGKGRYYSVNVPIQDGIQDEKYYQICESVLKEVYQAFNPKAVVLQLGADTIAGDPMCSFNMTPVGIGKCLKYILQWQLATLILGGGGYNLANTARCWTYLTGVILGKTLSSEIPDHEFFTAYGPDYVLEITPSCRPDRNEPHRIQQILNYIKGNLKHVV
Chain of Stromelysin-2 (P09238 whole entry): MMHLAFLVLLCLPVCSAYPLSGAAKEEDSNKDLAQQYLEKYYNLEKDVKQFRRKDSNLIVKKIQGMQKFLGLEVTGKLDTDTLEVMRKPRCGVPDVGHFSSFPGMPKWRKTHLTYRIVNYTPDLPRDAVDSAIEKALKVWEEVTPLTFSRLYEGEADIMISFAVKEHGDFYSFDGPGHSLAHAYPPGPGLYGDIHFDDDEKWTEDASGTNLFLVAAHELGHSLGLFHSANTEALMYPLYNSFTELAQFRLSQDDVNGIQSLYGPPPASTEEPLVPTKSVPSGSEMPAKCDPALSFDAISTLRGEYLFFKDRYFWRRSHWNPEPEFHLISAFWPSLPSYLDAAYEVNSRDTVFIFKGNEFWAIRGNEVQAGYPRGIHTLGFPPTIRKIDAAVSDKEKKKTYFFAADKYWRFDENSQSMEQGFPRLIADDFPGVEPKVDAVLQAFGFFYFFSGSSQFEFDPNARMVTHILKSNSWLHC

For the molecule `C#CCCCC(=O)NCCOCCOCCOc1ccc(C(=O)c2ccc(/C=C/C(=O)O)cc2)cc1`, in data set [1], the inhibition at 72 h, 10 µM was under 5%. The inhibition at 10 µM with Hepatitis C virus [2] was under 5%.
`O=C(NO)c1sc2ccccc2c1S(=O)(=O)c1ccccc1`: the half-life at 1 µM stood at 1.31 h in data set [3], 0.0233 h in data set [4], 12.8 h in [6] and 0.0283 h in data set [8]. In addition, the half-life in [5] and in data set [7] was over 24 h in each case. In the data set on Hepatitis C virus [9], the Activity entry is “Dose-dependent effect”. For the same molecule, in data set [10], the solubility thermodynamic at 72 h came to 3350 µM (≈ 1120 µg/mL).
Take `C#CCCCC(=O)NCCOCCOCCOc1ccc(C(=O)c2ccc(/C=C/C(=O)NO)cc2)cc1`: the selectivity ratio in [11] worked out at 21. Besides, the pEC50 in the data set with Hepatitis C virus [12] is 5.92. The CC50 at 72 h in data set [13] stood at 25 µM.
Take `O=C(/C=C/c1ccc(C(F)(F)F)cc1)NO`: the pIC50 in [14] was under 3.70; at Stromelysin-2 it was under 4.00; against Histone deacetylase 7, under 4.00; against Histone deacetylase 1, 5.39; in [15], under 4.00; against Histone deacetylase 11 it was 5.26. Also, the pIC50 against Histone deacetylase 5 was 4.46; at Neutrophil collagenase, under 4.00; on Matrilysin, under 4.00; on Collagenase 3 it was under 4.00; at Interstitial collagenase it was under 4.00; in data set [16], 5.20. Moreover, the pIC50 against Histone deacetylase 8 was 6.02; on Histone deacetylase 3 it was 5.27; at Stromelysin-1 it was under 4.00; in data set [18] it was under 4.00; in data set [19] it was under 4.00; at Histone deacetylase 9, under 4.00. Also, the pIC50 is 4.67 in [20], under 4.00 against Histone deacetylase 4, 5.20 against Histone deacetylase 2 and 6.74 in data set [21]. In addition, the half-life at 1 µM in [3] was 0.77 h; in data set [4], 8.88 h; in data set [6] it was 11.6 h; in data set [8] it was 0.247 h. For the same molecule, the half-life in data set [5] is over 24 h; in [7] it was 23.2 h. For the same molecule, the inhibition in data set [17] was under 5%. In the data set on Hepatitis C virus [9], the Activity result was “Dose-dependent effect”. Further, in [10], the solubility thermodynamic at 72 h came out at 648 µM (≈ 150 µg/mL).
Turning to `O=C(/C=C/c1ccc(C(=O)c2ccccc2)cc1)NO`, the selectivity ratio in data set [11] stood at 33. Moreover, the pEC50 with Hepatitis C virus [12] was 6.32. Besides, the CC50 at 72 h in [13] was found to be 16 µM.
As to `[N-]=[N+]=NCCCNC(=O)CCCC[C@@H]1SC[C@@H]2NC(=O)N[C@@H]21`, the inhibition at 72 h, 10 µM in [1] was under 5%. This molecule also gave an inhibition at 10 µM in the data set on Hepatitis C virus [2] of under 10%.
